One test has as its system DOHH2 cells. In words: Cell proliferation assay (MTS), DOHH2 cells, 120 h. Format: cell-based. The settings on record: Homo sapiens, DOHH-2, 120 h. In short, it runs like this:
(§1)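 Treatment lasts 72 h for RS4;11 and 120 h for DOHH2 cells seeded at 5000 per well in serum-containing RPMI-1640. A 2 h MTS step, halted with 10% SDS, precedes dual-wavelength absorbance reading and IC50 fitting.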

The next test concerns RS4;11 cells. In words: Cell proliferation assay (MTS), RS4;11 cells, 72 h. Format: cell-based. The settings on record: Homo sapiens, RS4-11, 72 h. In short, it runs like this:
as §1

From patent US11091478B2 (Fochon Pharmaceuticals, Ltd., priority 2017, dated 2021) come the findings set out here.

The structures appear in SMILES notation.

By IC50 is commonly meant the concentration needed to halve the response being measured.

Consider `CC1(C)CCC(CN2CCN(c3ccc(C(=O)NS(=O)(=O)c4cc5c(c([N+](=O)[O-])c4)N[C@H](CS(C)(=O)=O)CO5)c(Oc4cnc5[nH]ccc5c4)c3)CC2)=C(c2ccc(Cl)cc2)C1` [Example 2-145, (S)-2-((1H-pyrrolo[2,3-b]pyridin-5-yl)oxy)-4-(4-((4′-chloro-5,5-dimethyl-3,4,5,6-tetra-hydro-[1,1′-biphenyl]-2-yl)methyl)piperazin-1-yl)-N-((3-((methylsulfonyl)methyl)-5-nitro-3,4-dihydro-2H-benzo[b][1,4]oxazin-7-yl)sulfonyl)benzamide], for which the IC50 in the test on DOHH2 cells worked out at 87 nM; with RS4;11 cells it was 1 nM.

With `CC1(C)CCC(CN2CCN(c3ccc(C(=O)NS(=O)(=O)c4cc5c(c([N+](=O)[O-])c4)N[C@@H](CS(C)(=O)=O)CO5)c(Oc4cnc5[nH]ccc5c4)c3)CC2)=C(c2ccc(Cl)cc2)C1` [Example 2-147, (R)-2-((1H-pyrrolo[2,3-b]pyridin-5-yl)oxy)-4-(4-((4′-chloro-5,5-dimethyl-3,4,5,6-tetra-hydro-[1,1′-biphenyl]-2-yl)methyl)piperazin-1-yl)-N-((3-((methylsulfonyl)methyl)-5-nitro-3,4-dihdyro-2H-benzo[b][1,4]oxazin-7-yl)sulfonyl)benzamide], the IC50 in the test with DOHH2 cells worked out at 135 nM; in the test with RS4;11 cells, 16 nM.

In the case of `CC1(C)CCC(CN2CCN(c3ccc(C(=O)NS(=O)(=O)c4cc5c(c([N+](=O)[O-])c4)N[C@H](CN4CCS(=O)(=O)CC4)CO5)c(Oc4cnc5[nH]ccc5c4)c3)CC2)=C(c2ccc(Cl)cc2)C1` [Example 2-149, (R)-2-((1H-pyrrolo[2,3-b]pyridin-5-yl)oxy)-4-(4-((4′-chloro-5,5-dimethyl-3,4,5,6-tetra-hydro-[1,1′-biphenyl]-2-yl)methyl)piperazin-1-yl)-N-((3-((1,1-dioxidothiomorpholino)methyl)-5-nitro-3,4-dihydro-2H-benzo[b] [1,4]oxazin-7-yl)sulfonyl)benzamide], the IC50 was determined as 247 nM with DOHH2 cells and 50 nM with RS4;11 cells.

As for `CC1(C)CCC(CN2CCN(c3ccc(C(=O)NS(=O)(=O)c4cc5c(c([N+](=O)[O-])c4)N[C@H](CN4CCC(N=S(C)(C)=O)CC4)CO5)c(Oc4cnc5[nH]ccc5c4)c3)CC2)=C(c2ccc(Cl)cc2)C1` [Example 2-150], the concentration for half-maximal inhibition (IC50) in the test with DOHH2 cells was 67 nM; with RS4;11 cells, 45 nM.

For `CC1(C)CCC(CN2CCN(c3ccc(C(=O)NS(=O)(=O)c4cc5c(c([N+](=O)[O-])c4)N[C@H](CN4CCC(NS(C)(=O)=O)CC4)CO5)c(Oc4cnc5[nH]ccc5c4)c3)CC2)=C(c2ccc(Cl)cc2)C1` [Example 2-151, (R)-2-((1H-pyrrolo[2,3-b]pyridin-5-yl)oxy)-4-(4-((4′-chloro-5,5-dimethyl-3,4,5,6-tetra-hydro-[1,1′-biphenyl]-2-yl)methyl)piperazin-1-yl)-N-((3-((4-(methylsulfonamido)pi-peridin-1-yl)methyl)-5-nitro-3,4-dihydro-2H-benzo[b][1,4]oxazin-7-yl)sulfonyl)benzamide], the IC50 in the test on DOHH2 cells was determined as 2 nM; with RS4;11 cells, 1 nM.

Turning to `COC(=O)NC1CCN(C[C@@H]2COc3cc(S(=O)(=O)NC(=O)c4ccc(N5CCN(CC6=C(c7ccc(Cl)cc7)CC(C)(C)CC6)CC5)cc4Oc4cnc5[nH]ccc5c4)cc([N+](=O)[O-])c3N2)CC1` [Example 2-152, methyl (R)-(1-((7-(N-(2-((1H-pyrrolo[2,3-b]pyridin-5-yl)oxy)-4-(4-((4′-chloro-5,5-dimethyl-3,4,5,6-tetrahydro-[1,1′-biphenyl]-2-yl)meth-yl)piperazin-1-yl)benzoyl)sulfamoyl)-5-nitro-3,4-dihydro-2H-benzo[b][1,4]oxazin-3-yl)methyl)piperidin-4-yl)carbamate], the IC50 with DOHH2 cells and in the test with RS4;11 cells was 1 nM each time.
